The numbers were not newly measured in patent US20100143471A1, “NOVEL REDUCED DOSE PHARMACEUTICAL COMPOSITIONS OF FE[…] PSEUDOEPHEDRINE” (LUPIN LIMITED, priority 2007, published 2010), which cites them from elsewhere.

Where a name gives a salt, the structure may show the parent alone.

The series deals with seasonal allergic rhinitis symptoms. Particulars: children aged 6-11 years.

Turning to `CC(C)(C(=O)O)c1ccc(C(O)CCCN2CCC(C(O)(c3ccccc3)c3ccccc3)CC2)cc1` (centres unmarked) [fexofenadine HCl], the “reduction of seasonal allergic rhinitis symptoms” value (30 mg bid) is “effectively reduces all seasonal allergic rhinitis symptoms”. Take `CC(C)(C(=O)O)c1ccc(C(O)CCCN2CCC(C(O)(c3ccccc3)c3ccccc3)CC2)cc1` (centres unmarked) [fexofenadine]: under “doses of up to 60 mg bid”, the safety and sedation entry is “safe and nonsedating”.
